Like-named read-outs stand apart in the source and are kept apart here.

Here are results for 20 compounds from US9676782B2, “Substituted pyrazolo[1,5-a]pyrazines as negative allosteric modulators of metabotropic glutamate receptor 3” (Vanderbilt University, priority 2014, dated 2017).

One assay concerns the target rat mGlu5 (Rattus norvegicus (Rat), UniProt P31424). Description: mGlu5 Ca2+ flux assay. The format is cell-based. The following applies: for Emax at 30 µM: read-out: rat mGlu5 Glu max (%); for Fold selectivity (mGlu3 vs. mGlu5): ratio of rat mGlu5 EC50 or IC50 to rat mGlu3 IC50. An outline of the steps: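 Ca2+ flux read kinetically (FDSS7000) after overnight culture at 37° C/5% CO2 and a 5 min room-temperature buffer step following dye removal. Signals expressed per well as F/F0 and normalized to peak glutamate response; EC50 fitted by free 4-parameter logistic, three replicates per concentration equally weighted.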

In the next assay the target is rat mGlu3 (Rattus norvegicus (Rat), UniProt P31422). Description: mGlu3 Ca2+ flux assay. Type of assay: cell-based. The settings on record: for remaining activity at 30 µM: amplitude of response at 30 μM test compound as % of maximal response to glutamate, read-out: rat mGlu3 Glu max (%); for mGlu3 Glu max: response at 30 μM compound as percentage of maximal glutamate response. An outline of the steps: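 This calcium mobilization assay used rat mGlu3 cells cultured overnight (37° C., 5% CO2) and read on the FDSS7000 after a 10 minute room-temperature incubation in 20 μL assay buffer. Each of 360 readings per well was divided by its initial value (F/F0). Potency came from fitting normalized responses against log concentration with an unconstrained 4 parameter logistic equation, weighting triplicate points equally.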

Setting [1] is: PAM, amplitude of response at 30 μM test compound as % of maximal response to glutamate.
Where [2] appears, read: read-out: rat mGlu5 EC50 or IC50.
The mark [3] stands for this setting: NAM potency, decrease of glutamate EC80 response, >30,000 = no measurable activity, >10,000 = no plateau, read-out: rat mGlu3 IC50.

Chain of rat mGlu3 (P31422 23-879): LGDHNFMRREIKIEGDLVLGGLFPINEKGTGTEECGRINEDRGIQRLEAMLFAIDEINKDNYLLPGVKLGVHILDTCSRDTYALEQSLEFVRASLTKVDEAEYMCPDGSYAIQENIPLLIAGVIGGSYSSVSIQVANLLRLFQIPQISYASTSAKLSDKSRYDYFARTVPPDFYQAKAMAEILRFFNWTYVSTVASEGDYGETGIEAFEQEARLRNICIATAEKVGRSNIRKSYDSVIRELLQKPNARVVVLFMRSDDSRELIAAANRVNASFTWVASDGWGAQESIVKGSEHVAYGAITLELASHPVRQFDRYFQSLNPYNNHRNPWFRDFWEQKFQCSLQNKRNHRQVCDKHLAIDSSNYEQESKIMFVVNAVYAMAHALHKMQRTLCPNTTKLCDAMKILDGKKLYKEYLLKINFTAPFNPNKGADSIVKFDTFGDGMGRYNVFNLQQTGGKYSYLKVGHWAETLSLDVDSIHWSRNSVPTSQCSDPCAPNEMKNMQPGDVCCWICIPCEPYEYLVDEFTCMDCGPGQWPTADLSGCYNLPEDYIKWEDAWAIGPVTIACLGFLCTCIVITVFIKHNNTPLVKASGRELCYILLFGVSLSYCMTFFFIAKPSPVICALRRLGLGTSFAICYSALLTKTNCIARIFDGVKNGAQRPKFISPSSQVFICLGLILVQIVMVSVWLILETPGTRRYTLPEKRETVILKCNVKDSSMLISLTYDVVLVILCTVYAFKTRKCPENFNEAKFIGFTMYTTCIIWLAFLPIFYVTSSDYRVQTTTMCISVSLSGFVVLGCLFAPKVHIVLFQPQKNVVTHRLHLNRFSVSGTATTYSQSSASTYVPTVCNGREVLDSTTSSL
Chain of rat mGlu5 (P31424 21-1203): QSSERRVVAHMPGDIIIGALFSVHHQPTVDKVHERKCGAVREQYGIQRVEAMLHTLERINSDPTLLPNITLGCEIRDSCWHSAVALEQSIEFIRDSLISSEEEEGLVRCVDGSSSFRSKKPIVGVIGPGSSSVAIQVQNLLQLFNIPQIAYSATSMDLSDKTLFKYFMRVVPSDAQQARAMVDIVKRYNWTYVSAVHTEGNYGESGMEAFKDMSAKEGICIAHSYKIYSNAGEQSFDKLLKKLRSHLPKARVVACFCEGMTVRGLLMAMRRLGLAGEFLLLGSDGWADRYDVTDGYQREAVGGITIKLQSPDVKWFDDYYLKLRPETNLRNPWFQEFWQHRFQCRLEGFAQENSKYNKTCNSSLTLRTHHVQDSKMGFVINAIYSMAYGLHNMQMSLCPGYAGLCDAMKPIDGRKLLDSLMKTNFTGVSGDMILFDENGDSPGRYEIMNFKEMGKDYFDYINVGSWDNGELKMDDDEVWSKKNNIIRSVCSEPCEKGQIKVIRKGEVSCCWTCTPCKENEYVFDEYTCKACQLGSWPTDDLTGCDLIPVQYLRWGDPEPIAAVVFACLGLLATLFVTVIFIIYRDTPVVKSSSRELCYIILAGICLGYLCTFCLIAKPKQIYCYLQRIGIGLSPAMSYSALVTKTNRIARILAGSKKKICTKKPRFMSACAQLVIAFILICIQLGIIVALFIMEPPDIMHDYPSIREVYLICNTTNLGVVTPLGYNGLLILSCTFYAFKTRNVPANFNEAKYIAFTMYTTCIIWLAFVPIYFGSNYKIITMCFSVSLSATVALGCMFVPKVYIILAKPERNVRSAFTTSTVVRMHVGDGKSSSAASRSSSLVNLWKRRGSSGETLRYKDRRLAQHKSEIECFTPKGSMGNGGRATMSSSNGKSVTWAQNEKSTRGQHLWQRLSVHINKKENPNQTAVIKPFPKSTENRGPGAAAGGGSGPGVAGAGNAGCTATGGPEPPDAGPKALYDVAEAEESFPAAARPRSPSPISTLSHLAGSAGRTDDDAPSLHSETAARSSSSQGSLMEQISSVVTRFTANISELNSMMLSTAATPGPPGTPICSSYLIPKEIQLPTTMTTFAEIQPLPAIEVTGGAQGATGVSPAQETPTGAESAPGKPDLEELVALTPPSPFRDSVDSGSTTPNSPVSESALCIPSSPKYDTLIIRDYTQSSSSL

As to `C[C@@H]1CN(c2ccc(F)cc2)C(=O)c2cc(CNc3cccc(Cl)c3)nn21` [Compound 48, (R)-2-(((3-chlorophenyl)amino)methyl)-5-(4-fluorophenyl)-7-methyl-6,7-dihydropyrazolo[1,5-a]pyrazin-4(5H)-one], the Emax at 30 µM at rat mGlu5 (setting [1]) was 88.8%. In addition, on rat mGlu5, the “Fold selectivity (mGlu3 vs. mGlu5)” value was >6.0. The EC50 on rat mGlu5 (setting [2]) was > 10000 nM. At rat mGlu3, the remaining activity at 30 µM came to 1.63%. Moreover, the IC50 at rat mGlu3 (read-out: rat mGlu3 IC50) worked out at 1650 nM.

For the compound `C[C@H]1CN(c2ccc(F)cc2)C(=O)c2cc(CNc3ccc(F)cc3)nn21` [Compound 57, (S)-5-(4-fluorophenyl)-2-(((4-fluorophenyl)amino)methyl)-7-methyl-6,7-dihydropyrazolo[1,5-a]pyrazin-4(5H)-one], the Emax at 30 µM at rat mGlu5 (setting [1]) came to 56.7%. Besides, at rat mGlu5, the “Fold selectivity (mGlu3 vs. mGlu5)” value amounted to 2.38. On rat mGlu5 (setting [2]), the EC50 stood at 5530 nM. The IC50 on rat mGlu3 (setting [3]) came out at 2320 nM. Further, the remaining activity at 30 µM at rat mGlu3 was determined as 0.96%.

On to `COc1ccc(N(C)Cc2cc3n(n2)CCN(c2cc(Cl)ccc2F)C3=O)cc1` [Compound 127, 5-(5-chloro-2-fluorophenyl)-2-(((4-methoxyphenyl)(methyl)amino)methyl)-6,7-dihydropyrazolo[1,5-a]pyrazin-4(5H)-one], for which the IC50 at rat mGlu5 (compound noted as NAM or partial antagonist (PAnt) at mGlu5, glutamate EC80, read-out: rat mGlu5 EC50 or IC50) was > 10000 nM; at rat mGlu3 (setting [3]) it was 1260 nM. In addition, at rat mGlu5 (compound noted as NAM or partial antagonist (PAnt) at mGlu5, response at 30 μM as % of maximal glutamate response), the Emax at 30 µM came to 54.6%. The “Fold selectivity (mGlu3 vs. mGlu5)” value at rat mGlu5 is >7.9. The remaining activity at 30 µM on rat mGlu3 is 2.32%.

Take `COc1ccc(N(C)Cc2cc3n(n2)CCN(c2ccccc2Cl)C3=O)cc1` [Compound 100, 5-(2-chlorophenyl)-2-(((4-methoxyphenyl)(methyl)amino)methyl)-6,7-dihydropyrazolo[1,5-a]pyrazin-4(5H)-one]: on rat mGlu5, the “Fold selectivity (mGlu3 vs. mGlu5)” value was >38. Also, the EC50 on rat mGlu5 (setting [2]) was > 30000 nM. Further, the IC50 at rat mGlu3 (setting [3]) was 777 nM. For the same compound, the remaining activity at 30 µM at rat mGlu3 is 1.8%.

`O=C1c2cc(CNc3ccc(F)cc3)nn2CCN1c1ccc(F)cc1` [Compound 13, 5-(4-fluorophenyl)-2-(((4-fluorophenyl)amino)methyl)-6,7-dihydropyrazolo[1,5-a]pyrazin-4(5H)-one]: the Emax at 30 µM on rat mGlu5 (setting [1]) turned out to be 56.6%. Besides, the “Fold selectivity (mGlu3 vs. mGlu5)” value at rat mGlu5 turned out to be 2.83. In addition, at rat mGlu5 (setting [2]), the EC50 stood at 3260 nM. Also, the IC50 on rat mGlu3 (setting [3]) turned out to be 1150 nM. Also, the remaining activity at 30 µM at rat mGlu3 was determined as 2.22%.

For the compound `COc1ccc(N(C)Cc2cc3n(n2)CCN(c2ccc(F)cn2)C3=O)cc1` [Compound 122, 5-(5-fluoropyridin-2-yl)-2-(((4-methoxyphenyl)(methyl)amino)methyl)-6,7-dihydropyrazolo[1,5-a]pyrazin-4(5H)-one], the “Fold selectivity (mGlu3 vs. mGlu5)” value on rat mGlu5 was >26. Moreover, the EC50 on rat mGlu5 (setting [2]) is > 30000 nM. On rat mGlu3 (setting [3]), the IC50 was found to be 1140 nM. For the same compound, the remaining activity at 30 µM at rat mGlu3 was determined as 1.4%.

As for `C[C@H]1CN(c2ccc(F)cc2)C(=O)c2cc(CNc3ccccc3)nn21` [Compound 41, (S)-5-(4-fluorophenyl)-7-methyl-2-((phenylamino)methyl)-6,7-dihydropyrazolo[1,5-a]pyrazin-4(5H)-one], at rat mGlu5 (setting [1]), the Emax at 30 µM came to 81.7%. Besides, the “Fold selectivity (mGlu3 vs. mGlu5)” value on rat mGlu5 stood at 0.17. Further, the EC50 on rat mGlu5 (setting [2]) came out at 1360 nM. Further, on rat mGlu3 (setting [3]), the IC50 came to 8110 nM. For the same compound, the remaining activity at 30 µM at rat mGlu3 was -2.27%.

As to `O=C1c2cc(CNc3ccc(OC(F)F)cc3F)nn2CCN1c1ccc(Cl)cc1F` [Compound 149, 5-(4-chloro-2-fluorophenyl)-2-(((4-(difluoromethoxy)-2-fluorophenyl)amino)methyl)-6,7-dihydropyrazolo[1,5-a]pyrazin-4(5H)-one], the “Fold selectivity (mGlu3 vs. mGlu5)” value on rat mGlu5 was >3. Moreover, the EC50 at rat mGlu5 (setting [2]) is > 30000 nM. Further, the remaining activity at 30 µM at rat mGlu3 turned out to be 25.8%. Also, the IC50 on rat mGlu3 (read-out: rat mGlu3 IC50) is > 10000 nM.

For the compound `O=C1c2cc(CNc3ccc(OC(F)F)cc3)nn2CCN1c1ccc(F)cc1` [Compound 20, 2-(((4-(difluoromethoxy)phenyl)amino)methyl)-5-(4-fluorophenyl)-6,7-dihydropyrazolo[1,5-a]pyrazin-4(5H)-one], the “Fold selectivity (mGlu3 vs. mGlu5)” value on rat mGlu5 is reported as >42. On rat mGlu5 (setting [2]), the EC50 was > 30000 nM. The IC50 at rat mGlu3 (setting [3]) was 709 nM. The remaining activity at 30 µM on rat mGlu3 turned out to be 2.9%.

Regarding `COc1ccc(N(C)Cc2cc3n(n2)CCN(c2ccccc2C#N)C3=O)cc1` [Compound 112, 2-(2-(((4-methoxyphenyl)(methyl)amino)methyl)-4-oxo-6,7-dihydropyrazolo[1,5-a]pyrazin-5(4H)-yl)benzonitrile], the “Fold selectivity (mGlu3 vs. mGlu5)” value on rat mGlu5 was >7.9. Besides, the concentration for a half-maximal effect (EC50) on rat mGlu5 (setting [2]) is > 30000 nM. The IC50 on rat mGlu3 (setting [3]) came out at 3790 nM. Moreover, the remaining activity at 30 µM on rat mGlu3 was 1.1%.

Take `COc1ccc(N(C)Cc2cc3n(n2)CCN(c2c(F)cccc2F)C3=O)cc1` [Compound 110, 5-(2,6-difluorophenyl)-2-(((4-methoxyphenyl)(methyl)amino)methyl)-6,7-dihydropyrazolo[1,5-a]pyrazin-4(5H)-one]: the “Fold selectivity (mGlu3 vs. mGlu5)” value on rat mGlu5 is on record as >18. The EC50 on rat mGlu5 (setting [2]) is > 30000 nM. Also, the IC50 at rat mGlu3 (setting [3]) came to 1640 nM. Moreover, the remaining activity at 30 µM at rat mGlu3 is 1.75%.

In the case of `O=C1c2cc(CNc3ccccc3)nn2CCN1c1ccc(F)cc1` [drawing 29 X = NH], at rat mGlu5 (Table 2 compounds with X = NH, read-out: mGlu5 EC50), the EC50 came to 2040 nM. Moreover, the “mGlu5 Glu max” value at rat mGlu5 (Table 2 compounds with X = NH, response at 30 μM compound as percentage of maximal glutamate response) was determined as 98%. Further, the IC50 at rat mGlu3 (Table 2 compounds with X = NH, read-out: mGlu3 IC50) was determined as 1320 nM. Further, the “mGlu3 Glu max” value on rat mGlu3 (Table 2 compounds with X = NH) was 2%.

Turning to `O=C1c2cc(CNc3ccc(OC(F)F)cc3F)nn2CCN1c1cccc(F)n1` [Compound 138, 2-(((4-(difluoromethoxy)-2-fluorophenyl)amino)methyl)-5-(6-fluoropyridin-2-yl)-6,7-dihydropyrazolo[1,5-a]pyrazin-4(5H)-one], the “Fold selectivity (mGlu3 vs. mGlu5)” value on rat mGlu5 is recorded as >36. For the same compound, the EC50 on rat mGlu5 (setting [2]) is > 30000 nM. Moreover, the remaining activity at 30 µM on rat mGlu3 stood at 2.05%. Further, the 50% inhibitory concentration (IC50) at rat mGlu3 (read-out: rat mGlu3 IC50) was determined as 821 nM.

Turning to `COc1ccc(N(C)Cc2cc3n(n2)CCN(c2cccc(OC)c2)C3=O)cc1` [Compound 113, 5-(3-methoxyphenyl)-2-(((4-methoxyphenyl)(methyl)amino)methyl)-6,7-dihydropyrazolo[1,5-a]pyrazin-4(5H)-one], the “Fold selectivity (mGlu3 vs. mGlu5)” value at rat mGlu5 was >26. Besides, the EC50 on rat mGlu5 (setting [2]) was > 30000 nM. The IC50 at rat mGlu3 (setting [3]) came out at 1120 nM. The remaining activity at 30 µM on rat mGlu3 came to 0.7%.

For `CN(Cc1cc2n(n1)CCN(c1ccc(F)cc1)C2=O)c1ccccc1` [drawing 29 X = NMe], the half-maximal effective concentration (EC50) on rat mGlu5 (Table 2 compounds with X = NMe, read-out: mGlu5 EC50) was > 30000 nM. Besides, the IC50 at rat mGlu3 (Table 2 compounds with X = NMe, read-out: mGlu3 IC50) amounted to 1220 nM. The “mGlu3 Glu max” value on rat mGlu3 (Table 2 compounds with X = NMe) worked out at 1%.

Regarding `O=C1c2cc(CNc3ccc(OC(F)F)cc3F)nn2CCN1c1ncccc1F` [Compound 143, 2-(((4-(difluoromethoxy)-2-fluorophenyl)amino)methyl)-5-(3-fluoropyridin-2-yl)-6,7-dihydropyrazolo[1,5-a]pyrazin-4(5H)-one], at rat mGlu5, the “Fold selectivity (mGlu3 vs. mGlu5)” value is recorded as >31. Further, the EC50 on rat mGlu5 (setting [2]) is > 30000 nM. Further, the half-inhibitory concentration (IC50) at rat mGlu3 (setting [3]) stood at 950 nM. Besides, the remaining activity at 30 µM at rat mGlu3 is 1.31%.

Take `CN(Cc1cc2n(n1)CCN(c1ccc(F)cc1)C2=O)c1cccc(F)c1` [Compound 86, 5-(4-fluorophenyl)-2-(((3-fluorophenyl)(methyl)amino)methyl)-6,7-dihydropyrazolo[1,5-a]pyrazin-4(5H)-one]: the Emax at 30 µM at rat mGlu5 (setting [1]) worked out at 110%. Moreover, the “Fold selectivity (mGlu3 vs. mGlu5)” value on rat mGlu5 is given as 13.06. For the same compound, the EC50 at rat mGlu5 (setting [2]) worked out at 7760 nM. Moreover, the IC50 at rat mGlu3 (setting [3]) was found to be 594 nM. At rat mGlu3, the remaining activity at 30 µM amounted to 1.68%.

As for `C[C@@H]1CN(c2ccc(F)cc2)C(=O)c2cc(CNc3ccc(OC(F)F)cc3)nn21` [Compound 64, (R)-2-(((4-(difluoromethoxy)phenyl)amino)methyl)-5-(4-fluorophenyl)-7-methyl-6,7-dihydropyrazolo[1,5-a]pyrazin-4(5H)-one], the “Fold selectivity (mGlu3 vs. mGlu5)” value on rat mGlu5 is recorded as >22. Further, the EC50 on rat mGlu5 (setting [2]) is > 30000 nM. Besides, the IC50 at rat mGlu3 (setting [3]) was 1350 nM. Further, the remaining activity at 30 µM on rat mGlu3 turned out to be 2.46%.

Turning to `COc1ccc(N(C)Cc2cc3n(n2)CCN(c2ccc(OC(F)F)cc2)C3=O)cc1` [Compound 123, 5-(4-(difluoromethoxy)phenyl)-2-(((4-methoxyphenyl)(methyl)amino)methyl)-6,7-dihydropyrazolo[1,5-a]pyrazin-4(5H)-one], the “Fold selectivity (mGlu3 vs. mGlu5)” value on rat mGlu5 is >29. On rat mGlu5 (setting [2]), the EC50 is > 30000 nM. The IC50 at rat mGlu3 (setting [3]) came to 1030 nM. On rat mGlu3, the remaining activity at 30 µM was found to be 0.3%.

For the compound `COc1ccc(NCc2cc3n(n2)CCN(c2ccc(F)cc2)C3=O)cc1` [Compound 17, 5-(4-fluorophenyl)-2-(((4-methoxyphenyl)amino)methyl)-6,7-dihydropyrazolo[1,5-a]pyrazin-4(5H)-one], the “Fold selectivity (mGlu3 vs. mGlu5)” value on rat mGlu5 was >14. Also, the EC50 on rat mGlu5 (setting [2]) is > 30000 nM. On rat mGlu3 (setting [3]), the IC50 amounted to 2120 nM. Besides, on rat mGlu3, the remaining activity at 30 µM turned out to be 1.55%.
